In the NIST ThermoML archive (doi:10.1016/j.fluid.2012.08.002):

Assay: xn = mol fraction of the nth substance listed
Conditions: 101 kPa, Liquid; for speed of sound: Sing-around technique in a fixed-path interferometer; for mass density: Vibrating tube method

CCCCCCn1cc[n+](C)c1.F[B-](F)(F)F [1-hexyl-3-methylimidazolium tetrafluoroborate] + COCCO
Conditions	mass density [kg/m3]	speed of sound [m/s]
288.15 K, x1 = 0.053	996.474	1409.6
288.15 K, x1 = 0.1088	1021	1431.9
288.15 K, x1 = 0.2016	1052.83	1457.6
288.15 K, x1 = 0.3088	1077.88	1478.5
288.15 K, x1 = 0.4106	1093.47	1491.7
288.15 K, x1 = 0.5023	1103.61	1503.4
288.15 K, x1 = 0.5962	1112.5	1512.3
288.15 K, x1 = 0.7006	1122.49	1520
288.15 K, x1 = 0.7995	1132.99	1529.1
288.15 K, x1 = 0.9099	1145.62	1540
293.15 K, x1 = 0.053	991.791	1392.4
293.15 K, x1 = 0.1088	1016.45	1415.8
293.15 K, x1 = 0.2016	1048.37	1442.3
293.15 K, x1 = 0.3088	1073.64	1463.8
293.15 K, x1 = 0.4106	1089.74	1477.6
293.15 K, x1 = 0.5023	1100.22	1490.1
293.15 K, x1 = 0.5962	1109.27	1499.5
293.15 K, x1 = 0.7006	1119.44	1508.2
293.15 K, x1 = 0.7995	1130.02	1518.1
293.15 K, x1 = 0.9099	1142.38	1527.2
298.15 K, x1 = 0.053	987.817	1375.8
298.15 K, x1 = 0.1088	1012.38	1399.8
298.15 K, x1 = 0.2016	1044.22	1427.1
298.15 K, x1 = 0.3088	1069.47	1449.5
298.15 K, x1 = 0.4106	1085.86	1463.8
298.15 K, x1 = 0.5023	1096.66	1476.9
298.15 K, x1 = 0.5962	1106.01	1487.1
298.15 K, x1 = 0.7006	1116.37	1496.5
298.15 K, x1 = 0.7995	1126.8	1505.8
298.15 K, x1 = 0.9099	1138.92	1514.7
303.15 K, x1 = 0.053	983.383	1359.3
303.15 K, x1 = 0.1088	1008.21	1384
303.15 K, x1 = 0.2016	1040.16	1411.9
303.15 K, x1 = 0.3088	1065.51	1435.5
303.15 K, x1 = 0.4106	1081.93	1450.1
303.15 K, x1 = 0.5023	1092.85	1463.9
303.15 K, x1 = 0.5962	1102.49	1474.7
303.15 K, x1 = 0.7006	1113.08	1484.5
303.15 K, x1 = 0.7995	1123.59	1493.6
303.15 K, x1 = 0.9099	1135.86	1502.4
308.15 K, x1 = 0.053	979.101	1342.8
308.15 K, x1 = 0.1088	1004.1	1368.2
308.15 K, x1 = 0.2016	1036.07	1397
308.15 K, x1 = 0.3088	1061.47	1421.5
308.15 K, x1 = 0.4106	1077.94	1436.9
308.15 K, x1 = 0.5023	1089.12	1451
308.15 K, x1 = 0.5962	1098.81	1462.2
308.15 K, x1 = 0.7006	1109.56	1472.2
308.15 K, x1 = 0.7995	1120.09	1481.5
308.15 K, x1 = 0.9099	1132.31	1490.3
313.15 K, x1 = 0.053	974.997	1326.5
313.15 K, x1 = 0.1088	999.809	1352.3
313.15 K, x1 = 0.2016	1031.82	1382.1
313.15 K, x1 = 0.3088	1057.43	1407.4
313.15 K, x1 = 0.4106	1073.99	1424.1
313.15 K, x1 = 0.5023	1085.32	1438.4
313.15 K, x1 = 0.5962	1095.09	1449.7
313.15 K, x1 = 0.7006	1105.89	1460.1
313.15 K, x1 = 0.7995	1116.48	1469.5
313.15 K, x1 = 0.9099	1128.74	1478.5
318.15 K, x1 = 0.053	970.346	1309.8
318.15 K, x1 = 0.1088	995.598	1336.2
318.15 K, x1 = 0.2016	1027.87	1367.3
318.15 K, x1 = 0.3088	1053.41	1393.3
318.15 K, x1 = 0.4106	1070.02	1411.6
318.15 K, x1 = 0.5023	1080.99	1425.6
318.15 K, x1 = 0.5962	1090.77	1437.4
318.15 K, x1 = 0.7006	1101.5	1448.2
318.15 K, x1 = 0.7995	1112.28	1457.7
318.15 K, x1 = 0.9099	1124.84	1466.9
